Here are results for three compounds from patent US5935945A, “Methods of treating or preventing cardiac arrhythmia” (Merck & Co., Inc., priority 1997, dated 1999).

Series [1] deals with T1, IKur (ultra-rapidly-activating delayed rectifier K^+ current) (Homo sapiens, UniProt P22460).
T1 construct: isolated human atrial myocytes; from tissue; host or cells: isolated myocytes from human right atrial appendage
The experiment in a line: Voltage-clamp measurement of IKur in isolated human atrial myocytes. It is filed as cell-based. As to conditions: rested state block, first pulse; 150 ms pulses to +40 mV from -50 mV; room temperature (22-24° C); read-out: Rested State IC50, IKur in Human Atrium. Here is the method:
J. Physiol. […] All tissues were collected in accordance with Temple University School of Medicine Institutional guidelines. […] Tissue samples were quickly immersed in cold (0-4° C.) cardioplegia solution containing (in mM/L): 50 KH2 PO4, 8 MgSO4, 10 NaHCO3, 5 adenosine, 25 taurine, 140 glucose, and 100 mannitol, pH 7.4 and bubbled with 100% O2. […] The tissue was gently agitated by continuous bubbling with 100% O2 for 5 min. […] The supernatant was removed after 40 min and discarded. The chunks were then incubated in a solution of the same ionic composition but supplemented with only collagenase and […] CaCl2. Microscopic examination of the medium was performed every 10-20 min to determine the number and quality of isolated cells. […] The supernatant was collected in a 50 ml centrifuge tube. […] Cells were used within 2-24 hr after isolation.
A small aliquot of the solution containing the isolated human atrial myocytes was placed in a 1-ml chamber mounted on the stage of an inverted microscope. Five minutes were allowed for cell adhesion to the bottom of the chamber. To record IKur, human atrial myocytes were superfused with a solution of the same ionic composition as that used for Kv1.5. An alternative external solution was sometimes used in which NaCl was replaced with NMDG (formal name: N-methyl-d-glucamine) to inhibit INa.
The amplitude of IKur was measured as the amplitude of the time-dependentcurrent at the end of the test pulse, relative to the holding current level. […] All experiments were performed at room temperature (22-24° C.).

A further series has as its target T2, hKv1.5 (Homo sapiens, UniProt P22460).
T2 construct: expressed in transfected cells
The experiment in a line: Voltage-clamp measurement of hKv1.5 current expressed in Chinese hamster ovary (CHO) cells. It is filed as cell-based. As to conditions: rested state block, first pulse; 150 ms pulses to +40 mV from -80 mV; room temperature (22-24° C); read-out: Rested State IC50, CHO Cells Expressing hKv1.5. Here is the method: Expression of Kv1.5 in CHO Cells
CHOKI cells were plated at 2.7×10^4 cells/60 mm dish and incubated at 37° C., in a 5% CO2 environment for three days. Cells were then washed twice and covered with 3 ml of OptiMEM medium (Gibco). Plasmid/DOTAP solution (consisting of […] of Kv1.5 in pcDNAI/Neo and […] DOTAP transfection reagent (Boehringer Mannheim) in 1 ml of OptiMEM) was added dropwise to each plate while swirling. Plates were incubated overnight and the media then changed to 5 mls of F12 (Gibco) supplemented with 10% FBS (Sigma), 1,000 U/ml penicillin […] streptomycin (Gibco), and 2 mM glutamine (Gibco). After two more days, the cells were trypsinized and replated on 100 mm dishes in supplemented F12 media including 1 mg/ml G418 (Gibco). The medium was changed daily until nontransfected cells were killed. Cell lines were grown from individual clones and tested for expression of Kv1.5 using both the ^86 RB efflux assay and voltage clamp protocols. […] These cells were maintained in culture and on each experimental day were freshly isolated by mild trypsinization.
The patch-clamp technique was used to record ionic currents in the whole-cell configuration. Patch pipettes were obtained using a two stage puller from square bore (1.0 mm o.d.) borosillicate capillary tubing. Pipettes were filled with the following solution (in mM/L): 110 K-Gluconate or K-Aspartate, 20 KCl, 5 MgATP, 5 EGTA, 5-10 HEPES, pH 7.2. […] Following seal formation, the membrane was ruptured by gentle suction to establish the whole-cell configuration, and negative pressure was maintained on the pipette using a 1 ml gas-tight syringe attached via air tight tubing to the suction port of the microelectrode holder.
Kv1.5 currents were elicited by 150 ms depolarizing test pulses to +40 mV from a holding potential of -80 mV. The effects of test agents were assessed at steady-state. Data was analyzed as % block from control current amplitude. […] All experiments were performed at room temperature (22-24° C.). […]

The structures appear in SMILES notation. Read-outs that look alike come from different tables or passages of the source.

T1 sequence (P22460 whole entry): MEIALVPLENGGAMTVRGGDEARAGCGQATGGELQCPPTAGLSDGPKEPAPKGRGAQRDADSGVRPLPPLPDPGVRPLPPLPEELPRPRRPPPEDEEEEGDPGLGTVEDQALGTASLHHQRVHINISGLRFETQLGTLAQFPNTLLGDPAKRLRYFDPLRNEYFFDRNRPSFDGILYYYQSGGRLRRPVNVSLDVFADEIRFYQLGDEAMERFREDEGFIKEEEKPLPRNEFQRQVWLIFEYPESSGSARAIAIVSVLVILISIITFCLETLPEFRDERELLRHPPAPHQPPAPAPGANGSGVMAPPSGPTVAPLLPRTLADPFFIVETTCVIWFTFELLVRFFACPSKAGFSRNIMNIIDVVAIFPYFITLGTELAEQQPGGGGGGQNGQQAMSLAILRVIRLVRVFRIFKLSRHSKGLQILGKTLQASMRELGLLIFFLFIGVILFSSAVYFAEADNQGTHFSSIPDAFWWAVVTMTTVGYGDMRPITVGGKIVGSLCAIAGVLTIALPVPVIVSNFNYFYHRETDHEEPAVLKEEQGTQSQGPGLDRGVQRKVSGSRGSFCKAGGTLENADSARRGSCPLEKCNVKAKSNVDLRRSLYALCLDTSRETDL
T2 sequence (P22460 whole entry): as above
Protocol for atrial flutter: In this model, atrial flutter was induced following a Y-shaped surgical lesion comprised of an intercaval incision and a connecting incision across the right atrium. […] Bipolar electrodes also were sutured to the left ventricle for measurement of ventricular excitation threshold (VET) and ventricular relative (VRRP at 2× VET) and effective refractory periods (VERP at 10×VET). The following cardiac electrophysiologic parameters also were measured before test agent administration and at the termination of the study: AH interval, an index of AV nodal conduction; HV interval, an index of His-ventricular conduction time; P-A interval, an index of intra-atrial conduction; and H-EG interval, an index of ventricular conduction; and paced ECG QT interval. AV nodal functional refractory period (AVNFRP) and SA conduction time (SACT) were determined by the introduction of atrial extrastimuli during sinus rhythm, and the monitoring of ventricular response. Electrocardiographic intervals were determined during sinus rhythm; the rate-corrected ECG QTc interval was calculated as: QTc=QT (msec)/√R-R (sec).
Sustained atrial flutter was initiated in three dogs by electrical burst pacing (6-20 Hz) of the atria; atrial rates ranged from 440-530 cycles/min.

For the compound `COc1ccc(-n2nc(Sc3ccc(Cl)cc3)c(C)c(C#N)c2=O)cc1` [Compound A, 6-(4-Chlorophenylthio)-2-(4-methoxyphenyl)-5-methyl-3-oxo-2,3-dihydropyridazine-4-carbonitrile], the concentration for half-maximal inhibition (IC50) (in series [1]; at hKv1.5) was 230 nM throughout.

For `COc1ccc(-n2nc(Sc3ccc(C)cc3)c(C)c(C#N)c2=O)cc1` [Compound B], the IC50 was found to be 80 nM in series [1] and 120 nM on hKv1.5.

With `Cc1cc(C)c(CP(=O)(c2ccccc2)c2ccccc2)c(-c2ccc(F)c(C)c2)c1` [Compound C, 2-(Diphenylphosphinylmethyl)-4'-fluoro-3,5,3'-trimethyl-biphenyl], the figures for the IC50 (in series [1]; on hKv1.5) were 780 nM and 278 nM, respectively. The “atrial effective refractory period, post-treatment” value in the series on atrial flutter (at doses effective in terminating atrial arrhythmia, increase from 138±5 msec pretreatment) was found to be 153 ± 8 ms. The “effect on atrioventricular nodal or ventricular function” value in the series with atrial flutter (dog, in vivo) is recorded as “no indication of effect on atrioventricular nodal or ventricular function”. Besides, the “time to termination of atrial arrhythmia after test agent administration” value in the series with atrial flutter (i.v. bolus 3 mg/kg (two dogs) or 10 mg/kg (third dog)) lay in the range of 10 to 120 s. For the same compound, the “atrial rate during atrial flutter” value in the series on atrial flutter (i.v. bolus 3 mg/kg (two dogs) or 10 mg/kg (third dog), initial rates 440-530 cycles/min) is recorded as “slowed atrial rate”. Also, the “termination of atrial arrhythmia” value is “terminated the atrial arrhythmia” with atrial flutter (i.v. bolus 3 mg/kg, in two of three dogs) and “terminated the atrial arrhythmia” in the series on atrial flutter (i.v. bolus 10 mg/kg, in the third of three dogs).

The IC50 is the concentration at which inhibition is half-maximal.
